Experimental data reported in patent publication US20250134874A1, “PHARMACEUTICAL FORMULATIONS COMPRISING 3-({[(4R)-7-{METHYL[4-(PROPAN-2-YL)PHENYL]AMINO}-3,4-DIHYDRO-2H-1-BENZOPYRAN-4-YL]METHYL}AMINO)PYRIDINE-4-CARBOXYLIC ACID” (TACHYON THERAPEUTICS, INC., priority 2021, published 2025).

System: 301 cancer cell lines from different tumor types (OncoPanel; HD Biosciences)
Assay: 2D cell viability inhibition assay (CellTiter-Glo) in cancer cell line panel
Type: cell-based
Conditions: Homo sapiens
Description: In a larger screening study, compound 1 was evaluated across a broad cancer cell line panel (OncoPanel; HD Biosciences) composed of 301 cancer cell lines from different tumor types.
2D cell viability inhibition assays were performed in multiwell plates seeded with cells from the panel. After seeding, the plates were cultured overnight in a humidified incubator at 37° C. to promote adherence. Assays were initiated in individual wells by adding either DMSO as a vehicle control, growth media as a blank, or serially diluted compound 1 (10 μM to 0.0005 μM with 1:3 serial dilution). Cultures were incubated for 168 hours after which the number of viable cells in each test well was assessed using the CellTiter-Glo® Luminescent Cell Viability Assay. Luminescence readouts were performed using an EnVision® Multilabel Reader and the compound 1 readouts were normalized to the DMSO control readouts, expressed as a percent of the control. Outliers were flagged out by visual inspection. Percent of control was plotted against the corresponding compound 1 concentration and the absolute IC50 value was determined using four-parameter logistic non-linear regression as the concentration where inhibition was 50% of the control. For maximum inhibition <50%, the absolute IC50 was reported as >10. In addition to EC50 and IC50, AUC was determined and was normalized to the area corresponding to theoretical no-inhibition (the rectangular area defined by the compound dose range and 0 to 100 in y). Emax was recorded as the minimum in y with the compound dose range. For those cell lines where Emax>40, EC50 was manually set to 10 μM. A hierarchical clustering algorithm based on Euclidean distance between the standardized input values and “Ward.D” method as implemented in R hclust function was used to visualize the compound 1 cellular potency data. The sensitive/moderate/resistant calls for each cell line was determined by visually inspecting the resulting clustering dendrogram. All the analyses were done in R Core Team.

CC(C)c1ccc(N(C)c2ccc3c(c2)OCC[C@H]3CNc2cnccc2C(=O)O)cc1 [Compound 1, 3-({[(4R)-7-{methyl[4-(propan-2-yl)phenyl]amino}-3,4-dihydro-2H-1-benzopyran-4-yl]methyl}amino)pyridine-4-carboxylic acid]
EC50 (NCI-H1944, NCIH1944 cell line): ≥ 10000 nM
IC50 (NCI-H1944, NCIH1944 cell line): 16.3 nM
EC50 (NCI-H1975, NCIH1975 cell line): 25.5 nM
IC50 (NCI-H1975, NCIH1975 cell line): 34.8 nM
IC50 (NCI-H2009, 168 h, NCIH2009, lung, adenocarcinoma, 168 hours): > 10000 nM
EC50 (NCI-H2081, NCIH2081 cell line): 1.46 nM
IC50 (NCI-H2081, NCIH2081 cell line): 2.57 nM
EC50 (NCI-H2087, NCIH2087 cell line): 2.58 nM
IC50 (NCI-H2087, NCIH2087 cell line): 3.56 nM
EC50 (NCI-H2122, NCIH2122 cell line): 16.7 nM
IC50 (NCI-H2122, NCIH2122 cell line): 23.9 nM
EC50 (NCI-H2171, NCIH2171 cell line): ≥ 10000 nM
IC50 (NCI-H2171, NCIH2171 cell line): > 10000 nM
IC50 (NCI-H2228, NCIH2228 cell line): 179 nM
EC50 (NCI-H2286, NCIH2286 cell line): 2.53 nM
IC50 (NCI-H2286, NCIH2286 cell line): 3.51 nM
EC50 (NCI-H2291, NCIH2291 cell line): 7.55 nM
IC50 (NCI-H2291, NCIH2291 cell line): 8.4 nM
IC50 (NCI-H2347, NCIH2347 cell line): 13.1 nM
EC50 (NCI-N87, NCIN87 cell line): 3.94 nM
IC50 (NCI-N87, NCIN87 cell line): 4.29 nM
EC50 (NOMO-1, NOMO1 cell line): 3.92 nM
IC50 (NOMO-1, NOMO1 cell line): 5.01 nM
EC50 (NUGC-3, NUGC3 cell line): 5.63 nM
IC50 (NUGC-3, NUGC3 cell line): 7.72 nM
EC50 (NUGC-4, NUGC4 cell line): 6.62 nM
IC50 (NUGC-4, NUGC4 cell line): 10.6 nM
IC50 (ONS-76, 168 h, ONS76, central nervous system, NS, 168 hours): > 10000 nM
IC50 (OS-RC-2, OSRC2 cell line): > 10000 nM
IC50 (OVCAR-3, 168 h, NIHOVCAR3, ovary, NS, 168 hours): > 10000 nM
EC50 (P31-FUJ, P31FUJ cell line): 2.43 nM
IC50 (P31-FUJ, P31FUJ cell line): 4.32 nM
EC50 (PANC-1, PANC1 cell line): 51.5 nM
IC50 (PANC-1, PANC1 cell line): 68.6 nM
EC50 (PC-3, PC3 cell line): 11.8 nM
IC50 (PC-3, PC3 cell line): 14.5 nM
EC50 (PF-382, PF382 cell line): 1.89 nM
IC50 (PF-382, PF382 cell line): 3.69 nM
EC50 (PLC-PRF-5, PLCPRF5 cell line): 16.4 nM
IC50 (PLC-PRF-5, PLCPRF5 cell line): 28 nM
IC50 (RCM-1, RCM1 cell line): > 10000 nM
EC50 (RD, RD cell line): 4.79 nM
IC50 (RD, RD cell line): 9.29 nM
EC50 (REH, REH cell line): 1.32 nM
IC50 (REH, REH cell line): 1.21 nM
EC50 (RKO, RKO cell line): 8.5 nM
IC50 (RKO, RKO cell line): 11.5 nM
EC50 (RL, RL cell line): 1.88 nM
IC50 (RL, RL cell line): 2.99 nM
IC50 (RPMI-7951, 168 h, RPMI7951, skin, NS, 168 hours): > 10000 nM
EC50 (RPMI-8226, RPMI8226 cell line): 10.4 nM
IC50 (RPMI-8226, RPMI8226 cell line): 12.5 nM
EC50 (RT112/84, RT11284 cell line): 4.14 nM
IC50 (RT112/84, RT11284 cell line): 4.43 nM
IC50 (SAOS-2, 168 h, SAOS2, bone, NS, 168 hours): > 10000 nM
EC50 (SCC-4, SCC4 cell line): 5.57 nM
IC50 (SCC-4, SCC4 cell line): 10.5 nM
IC50 (SCC-9, 168 h, SCC9, upper aerodigestive tract, squamous cell carcinoma, 168 hours): > 10000 nM
IC50 (SCC-15, 168 h, SCC15, upper aerodigestive tract, squamous cell carcinoma, 168 hours): > 10000 nM
IC50 (SCC-25, 168 h, SCC25, upper aerodigestive tract, squamous cell carcinoma, 168 hours): > 10000 nM
EC50 (SCaBER, SCABER cell line): 8.93 nM
IC50 (SCaBER, SCABER cell line): 15.2 nM
EC50 (SH-SY5Y, SHSY5Y cell line): 4.32 nM
IC50 (SH-SY5Y, SHSY5Y cell line): 13.5 nM
EC50 (SK-BR-3, SKBR3 cell line): 4.32 nM
IC50 (SK-BR-3, SKBR3 cell line): 7.14 nM
EC50 (SK-CO-1, SKCO1 cell line): ≥ 10000 nM
IC50 (SK-CO-1, SKCO1 cell line): 30.6 nM
IC50 (SK-HEP1, 168 h, SKHEP1, liver, adenocarcinoma, 168 hours): > 10000 nM
EC50 (SK-LU-1, SKLU1 cell line): 8.49 nM
IC50 (SK-LU-1, SKLU1 cell line): 40 nM
IC50 (SK-MEL3, SKMEL3 cell line): 472 nM
EC50 (SK-MEL-1, SKMEL1 cell line): 0.536 nM
IC50 (SK-MEL-1, SKMEL1 cell line): 9.24 nM
EC50 (SK-MEL-2, SKMEL2 cell line): 27 nM
IC50 (SK-MEL-2, SKMEL2 cell line): 140 nM
EC50 (SK-MEL-5, SKMEL5 cell line): 14.8 nM
IC50 (SK-MEL-5, SKMEL5 cell line): 16.8 nM
IC50 (SK-MEL-24, 168 h, SKMEL24, skin, NS, 168 hours): > 10000 nM
EC50 (SK-MEL-28, SKMEL28 cell line): 5.63 nM
IC50 (SK-MEL-28, SKMEL28 cell line): 5.56 nM
EC50 (SK-MES-1, SKMES1 cell line): 24.3 nM
IC50 (SK-MES-1, SKMES1 cell line): 47.5 nM
IC50 (SK-N-SH, 168 h, SKNSH, autonomic ganglia, NS): > 10000 nM
IC50 (SK-OV-3, 168 h, SKOV3, ovary, adenocarcinoma, 168 hours): > 10000 nM
EC50 (SNB-19, SNB19 cell line): 7.01 nM
IC50 (SNB-19, SNB19 cell line): 11.6 nM
EC50 (SNU-5, SNU5 cell line): 82.4 nM
IC50 (SNU-5, SNU5 cell line): 146 nM
EC50 (SNU-16, SNU16 cell line): 3.69 nM
IC50 (SNU-16, SNU16 cell line): 4.22 nM
EC50 (SNU-398, SNU398 cell line): 9.63 nM
IC50 (SNU-398, SNU398 cell line): 18 nM
IC50 (SNU-C1, 168 h, SNUC1, large intestine, adenocarcinoma, 168 hours): > 10000 nM
IC50 (SUP-T1, SUPT1 cell line): 3330 nM
EC50 (SW48, SW48 cell line): ≥ 10000 nM
IC50 (SW48, SW48 cell line): 50 nM
EC50 (SW480, SW480 cell line): 7.73 nM
IC50 (SW480, SW480 cell line): 9.79 nM
EC50 (SW780, SW780 cell line): 11.8 nM
IC50 (SW780, SW780 cell line): 13 nM
IC50 (SW837, 168 h, SW837, large intestine, adenocarcinoma, 168 hours): > 10000 nM
IC50 (SW1417, 168 h, SW1417, large intestine, adenocarcinoma, 168 hours): > 10000 nM
EC50 (SW1463, SW1463 cell line): 9.18 nM
IC50 (SW1463, SW1463 cell line): 9.24 nM
EC50 (SW1710, SW1710 cell line): 27.3 nM
IC50 (SW1710, SW1710 cell line): 63.3 nM
IC50 (SW1990, SW1990 cell line): > 10000 nM
EC50 (SW-620, SW620 cell line): 26.3 nM
IC50 (SW-620, SW620 cell line): 29.3 nM
EC50 (T84, T84 cell line): 10.1 nM
IC50 (T84, T84 cell line): 21 nM
EC50 (TALL-1, TALL1 cell line): 0.895 nM
